Assay results published in patent publication US10078090B2, “SAB as a biomarker for degenerative diseases and therapeutic sensitivity in cancers” (The Florida International University Board of Trustees, priority 2014, dated 2018).
“Also recorded” adds a separate entry of the source. Like-named read-outs stand apart in the source and are kept apart here. Blank lines part the entries; values can stand above or below the compound they belong to.

Columns and labels:
Sab expression [1] = assay: In-cell western for SAB expression in SH-SY5Y cells treated with 6-OHDA; format: cell-based, human; details: increasing sub-chronic doses of 6-OHDA (0-100.00 nM, 24 hours)
Description: Cells or tissue samples are placed in a fluorescent compatible plate (for example, a 96-well plate) and the sample can be fixed to the plate. The sample is then permeabilized using detergent to disrupt the plasma membrane. Primary antibodies to detect SAB (Abnova, Inc.) are then incubated with the samples. Following a brief wash, the cells are incubated with a fluorescently labeled secondary antibody used to recognize the primary antibody. The samples are washed again. The plate is then scanned on a Li-Cor Bioscience Odyssey CLx near-infrared scanner to measure the fluorescent signal from the sample. A high fluorescent signaling indicates a higher level of SAB protein, while a low fluorescence signal indicates a lower level of SAB protein.
An in-cell western allows detection of protein levels in cells cultured in a 96-well black walled plate. For this technique, the cells are fixed with paraformaldehyde following seeding and growth to 80% confluency. […] Using the LiCor Odyssey CLx near infrared imager, the relative amounts of protein in each well are quantified. […]
An example of in-cell western technology for the detection of SAB is shown in (FIG. 3). […] In a model of cytotoxicity, SH-SY5Y cells treated with increasing sub-chronic doses of the neurotoxin, 6-hydroxydopamine (6-OHDA) were seeded in a 96-well plate and monitored for SAB expression.

SAB [2] = assay: SAB levels in rats injected with 6-OHDA (ventral midbrain western blot, blood cells); format: in vivo, rat
Excerpt: Parkinson's disease-like state was induced in animals by localizing treatment to the ventral midbrains of rats using 6-hydroxydopamine. Blood was obtained from 6-hydroxydopamine treated rats and the control rats. Levels of SAB protein or RNA encoding SAB proteins in platelets and other blood cells were higher in 6-hydroxydopamine treated rats compared to control rats.
Further, disruption of SAB-mediated signaling using a small peptide to block kinase binding to SAB prevented 6-OHDA-induced motor deficiencies in rats (FIG. 8).

[3] = patients; cited from earlier work
SAB [4] = assay: SAB levels in response to chronic cytotoxic processes; details: treatment with CCCP
HeLa cells [5] = assay: Calculation of paclitaxel and cisplatin IC50s by TO-PRO-3 staining; format: cell-based, human
Description: LY294002 was solubilized in dimethylformamide (DMF). HeLa cells were exposed to the indicated doses of LY294002 over 24 h for acute studies. […] For sub-chronic exposure, cells were dosed with 2 μM LY294002 for seven days. The media was exchanged every 48 h to sustain the drug concentrations.
Briefly, 10,000 cells were plated in a black-walled optically clear bottom 96-well plate. […] The cells were fixed in 4% paraformaldehyde for 25 min at room temperature, and stained with TO-PRO-3 (1 μM) in PBST (150 mM NaCl, 8 mM Na2HPO4, 3 mM KCl, 2 mM KH2PO4, pH 7.4, 0.05% Tween 20). The cells were then washed five times in PBST while gently rocking for 5 min at room temperature. Samples were protected from light during incubations. Assays were visualized on the Li-Cor Odyssey CLx imager, and IC50s were calculated using Graphpad® Prism.
Transient transfections with pLOC plasmids for expression and pLKO.1 plasmids for silencing (Open Biosystems) were used to modulate Sab levels. HeLa cells were plated at a density of 2×10^5 cells per 35-mm dish the day before transfections. Plasmids were mixed with FugeneHD (Promega) at a ratio of 3:1 according to the manufacturer's protocol. Protein levels were monitored by western blot analysis.
(§1) Studies using LY294002 have employed high doses (often >10 μM). […] For acute treatments, cells were dosed with 0.1% DMF or increasing concentrations of LY294002 (2 μM, 10 μM, and 50 μM) for 24 h.

JNK = JNK activation and mitochondrial JNK in LY294002-treated HeLa cells by western blot; format: cell-based, human
Description: (§2) Following 72 h of transfection, cells were lysed and proteins were harvested. Protein concentration was determined using the by Pierce BCA Assay kit. Proteins were resolved by SDS-PAGE, and transferred onto PVDF membranes. Membranes were incubated with Li-Cor Biosciences Odyssey Blocking for at least 1 h at room temperature. The membranes were then incubated with primary antibodies specific for Sab, JNK, p44/42 MAPK (Erk1/2), p38, GAPDH, Actin, Calnexin, TOM20, or α-tubulin at 1:1000 dilutions in blocking buffer. Membranes were washed three times for 5 min in PBST. Membranes were incubated with secondary antibodies in blocking buffer at 1:20,000 for fluorescently conjugated secondary antibodies. Membranes were again washed three times for 5 min in PBST. Western blots were developed using the Odyssey CLx imager (Li-Cor Biosciences).
Mitochondria were isolated from HeLa cells. […]
(§3) Western blot images were acquired using the LI-COR Odyssey CLx imager. Fluorescence signals were acquired for the bands of interest. […]
To determine if LY294002 impacted the concentration of JNK signaling on mitochondria, the expression of Sab was measured in HeLa cells in both acute and sub-chronic administration of LY294002. […] As time increased, there was a noticeable increase (˜8-fold) in Sab expression in the LY294002 compared to DMF-treated and untreated cells (FIG. 17B and quantified in FIG. 18B). […]

HeLa cells [6] = assay: LY294002 toxicity / viability of HeLa cells; format: cell-based, human
Description: LY294002 was solubilized in dimethylformamide (DMF). HeLa cells were exposed to the indicated doses of LY294002 over 24 h for acute studies. […] […] The media was exchanged every 48 h to sustain the drug concentrations.
as §1

Sab expression [7] = assay: Sab expression in LY294002-treated HeLa cells by quantitative western blot; format: cell-based, human
Description: LY294002 was solubilized in dimethylformamide (DMF). HeLa cells were exposed to the indicated doses of LY294002 over 24 h for acute studies. The 24-h IC10 for LY294002 in HeLa cells to be ˜2 μM. For sub-chronic exposure, cells were dosed with 2 μM LY294002 for seven days. The media was exchanged every 48 h to sustain the drug concentrations.
as §2, with “Western blots were developed using the Odyssey CLx imager (Li-Cor Biosciences).” left out
as §3
HeLa cell mitochondria were primed using a sub-chronic (2 μM dose) of LY294002 for seven days. The concentration of SAB was monitored using quantitative western blot analysis on protein lysates taken on days 0, 3, and 7 of LY294002 treatment.
To determine if LY294002 impacted the concentration of JNK signaling on mitochondria, the expression of Sab was measured in HeLa cells in both acute and sub-chronic administration of LY294002. […] As time increased, there was a noticeable increase (˜8-fold) in Sab expression in the LY294002 compared to DMF-treated and untreated cells (FIG. 17B and quantified in FIG. 18B). […] To determine if mitochondrial translocation of JNK occurred during the sub-chronic treatment, mitochondrial isolates were analyzed for the presence of JNK on days 3 and 4 (the days of maximal JNK activation). […]

[8] = test system: SK-OV-3 ovarian cancer cells; assay: Paclitaxel sensitivity of SK-OV-3 cells over-expressing SH3BP5; format: cell-based, human; details: paclitaxel following 48 hours of transfection

Structure (SMILES): NCCc1cc(O)c(O)cc1O [6-OHDA, 6-hydroxydopamine]
- SAB expression (Sab expression [1]): elevates SAB expression; also recorded: increased in a dose-dependent manner
- Levels of SAB protein or RNA encoding SAB proteins in platelets and other blood cells (SAB [2]; 6-hydroxydopamine treated rats compared to control rats): higher
- SAB levels in ventral midbrain (SAB [2]; rats stereotactically injected with 6-OHDA versus saline, six days post-injection): SAB levels increase; also recorded: elevated

Structure (SMILES): Sc1ncnc2nc[nH]c12 [6-mercaptopurine]
- Doses that can induce hepatotoxicity [3]: greater than 2 mg/kg

Structure (SMILES): N#CC(C#N)=NNc1cccc(Cl)c1 [CCCP, carbonylcyanide m-chlorophenylhydrazone]
- SAB levels (SAB [4]): increased

Structure (SMILES): N.N.[Cl][Pt][Cl] [Cisplatin]
- IC50 (HeLa cells [5]; read-out: Cisplatin IC50, Sab shRNA#2 + Sab:shRNA^r (rescue)): 0.0073 µM
- IC50 (HeLa cells [5]; read-out: Cisplatin IC50, gene silencing, Sab shRNA#1): 0.0121 µM
- IC50 (HeLa cells [5]; read-out: Cisplatin IC50, gene silencing, Sab shRNA#2): 0.0188 µM
- IC50 (HeLa cells [5]; read-out: Cisplatin IC50, gene silencing, control shRNA): 0.0039 µM
- IC50 (HeLa cells [5]; read-out: Cisplatin IC50, sub-chronic (7 days) 2 μM LY294002): 0.00054 µM
- IC50 (HeLa cells [5]; read-out: Cisplatin IC50, untreated): 0.0032 µM

Structure (SMILES): O=c1cc(N2CCOCC2)oc2c(-c3ccccc3)cccc12 [LY294002, 2-Morpholin-4-yl-8-phenylchromen-4-one]
- Increase in phospho-JNK levels (JNK; 2 μM LY294002, between days 2 and 4): over 10 fold
- JNK levels on mitochondria (JNK; 2 μM LY294002, between days 3 and 4): increased
- HeLa cell viability (HeLa cells [6]; 2 μM LY294002, seven days): little impact
- HeLa cell viability (HeLa cells [6]; 10 μM and 50 μM LY294002, seven days): lethal
- 24-h IC10 for LY294002 (HeLa cells [6]; HeLa cells, 24 h): ~2 µM
- Increase in Sab expression compared to DMF-treated and untreated cells (Sab expression [7]; 2 μM LY294002, 7 days): ~8 fold
- SAB expression (in words) (Sab expression [7]; 2 μM LY294002 for seven days): pronounced increase; also recorded: significant increase; also recorded: increased SH3BP5 expression
- Sab expression versus 0.1% DMF and untreated controls (Sab expression [7]; 2 μM, 10 μM and 50 μM LY294002 over 24 h): neither condition increased Sab expression

- IC50 (HeLa cells [5]; Homo sapiens, HeLa, 24 h, acute (24 h) 2 μM LY294002, read-out: Paclitaxel IC50): 14.1 µM
- IC50 (HeLa cells [5]; Homo sapiens, HeLa, 24 h, acute (24 h) 10 μM LY294002, read-out: Paclitaxel IC50): 6.3 µM
- IC50 (HeLa cells [5]; Homo sapiens, HeLa, 24 h, acute (24 h) 50 μM LY294002, read-out: Paclitaxel IC50): 1.9 µM
- IC50 (HeLa cells [5]; Homo sapiens, HeLa, 24 h, acute (24 h) 50 μM LY294002, read-out: Paclitaxel IC50 (as worded in text)): 1.9 µM
- IC50 (HeLa cells [5]; Homo sapiens, HeLa, 24 h, acute (24 h) 0.1% DMF, read-out: Paclitaxel IC50): 13.6 µM
- IC50 (HeLa cells [5]; Homo sapiens, HeLa, 168 h, sub-chronic (7 days) 2 μM LY294002, read-out: Paclitaxel IC50): 5.1 µM
- IC50 (HeLa cells [5]; Homo sapiens, HeLa, 168 h, sub-chronic (7 days) 0.1% DMF, read-out: Paclitaxel IC50): 13.9 µM
- IC50 (HeLa cells [5]; Homo sapiens, HeLa, Sab shRNA#2 + Sab:shRNA^r (rescue), read-out: Paclitaxel IC50): 28 µM
- IC50 (HeLa cells [5]; Homo sapiens, HeLa, ectopic expression of RFP, read-out: Paclitaxel IC50): 13.4 µM
- IC50 (HeLa cells [5]; Homo sapiens, HeLa, ectopic expression of Sab, read-out: Paclitaxel IC50): 4.7 µM
- IC50 (HeLa cells [5]; Homo sapiens, HeLa, ectopic expression of Sab: KIM1/2-L/A, read-out: Paclitaxel IC50): 13.8 µM
- IC50 (HeLa cells [5]; Homo sapiens, HeLa, gene silencing, Sab shRNA#1, read-out: Paclitaxel IC50): 61.8 µM
- IC50 (HeLa cells [5]; Homo sapiens, HeLa, gene silencing, Sab shRNA#2, read-out: Paclitaxel IC50): 73.4 µM
- IC50 (HeLa cells [5]; Homo sapiens, HeLa, gene silencing, control shRNA, read-out: Paclitaxel IC50): 15.3 µM
- IC50 (HeLa cells [5]; Homo sapiens, HeLa, untreated, read-out: Paclitaxel IC50): 14.7 µM
Structure (SMILES): CC(=O)O[C@H]1C(=O)[C@@]2(C)[C@H]([C@H](OC(=O)c3ccccc3)[C@]3(O)C[C@H](OC(=O)[C@H](O)[C@@H](NC(=O)c4ccccc4)c4ccccc4)C(C)=C1C3(C)C)[C@]1(OC(C)=O)CO[C@@H]1C[C@@H]2O [Paclitaxel]
- Decrease in the IC50 of paclitaxel on increasing Sab expression (HeLa cells [5]; pLOC:Sab versus untreated, mock-transfected or RFP cells): 5 fold
- Sensitivity to paclitaxel of SH3BP5 over-expressing cells compared to mock and D-AKAP1 over-expressing cells [8]: 2.5 times
